pIC50: −log10 of the molar value. Like-named read-outs stand apart in the source and are kept apart here.
Tests used:
[1] = target: Aβ(1-42) amyloid fibrils (Homo sapiens, UniProt P05067); assay: ^3H-AZD2184 competition binding to Aβ(1-42) fibrils in vitro; conditions: competition with [^3H]-AZD2184, Aβ(1-42) amyloid fibrils; average if run more than once
Procedure: ^3H-AZD2184 Competition Binding to Aβ(1-42) Fibrils In Vitro
Competition binding experiments to Aβ(1-42) amyloid fibrils were performed as previously described in Jureus, A., et al, Journal of Neurochemistry (2010), Vol. 114, pages 784-794 for the Example compounds of the invention indicated in Table 2, or the known tau specific ligand PBB3 (PBB3 was synthesized as previously described in M. Maruyama, et al, Neuron 2013, 79, 1094-1108).
The results are shown in Table 2 in the column labeled “Aβ IC50”.

[2] = test system: recombinant 0N4R Tau fibrils; assay: ^3H-THK5117 competition binding to tau fibrils in vitro; conditions: calculated from [^3H]-THK5117 tau and [^3H]-AZD2184 Aβ assay results
Procedure: (§1) ^3H-THK5117 Competition Binding to Tau Fibrils In Vitro
(§2) Preparation of recombinant 0N4R Tau fibrils was performed as previously described in Morozova, O. A., Biochemistry (2013), Vol., 52(40), pages 6960-6967. Competition binding experiments to 0N4R Tau fibrils were performed by incubating increasing concentrations [10^−10-10^−6 M] of the Example compounds of the invention, or the known tau specific ligand PBB3 (PBB3 was synthesized as previously described in M. Maruyama, et al, Neuron 2013, 79, 1094-1108) or MK6240 (Novandi Chemistry AB), in the presence of 3 nM of the known tau ligand [^3H]-THK5117 (Novandi Chemistry) and 0.2 mM 0N4R tau fibrils in binding buffer (50 mM Tris-HCl, pH 7.4, 0.1% BSA) for 1 h in the dark, and at 22° C. The incubation was terminated by filtration through a Whatman GF/B glass filter (Whatman International, Kent, UK) using a Brandel cell harvester. The filter was then washed rapidly four times with 3 mL of ice-cold wash buffer (5 mM Tris-HCl, 0.25 mM NaCl, 5% EtOH), and equilibrated for 1 h in scintillation vials containing 5 mL of Ultima Gold scintillation fluid before being analysed using a Liquid Scintillation Analyzer.
(§3) The results are shown in Table 2 in the column labeled “Tau IC50”.
(§4) Relative Selectivity for Tau vs. Aβ
(§5) Relative selectivity for tau compared to Aβ for the exemplified compounds was calculated using the results for the [^3H]-THK5117 tau and [^3H]-AZD2184 Aβ assays described above. The calculated results are shown in Table 2 in the column labeled “Selectivity for tau relative to Aβ”.

[3] = target: recombinant 0N4R Tau fibrils (Homo sapiens (Human), UniProt P10636); assay: as above; conditions: for pIC50: competition with 3 nM [^3H]-THK5117, 0N4R tau fibrils, 1 h, 22° C., average if run more than once
Chain of recombinant 0N4R Tau fibrils (Homo sapiens (Human), UniProt P10636) (P10636 other isoform, or with tags, fused parts or gaps): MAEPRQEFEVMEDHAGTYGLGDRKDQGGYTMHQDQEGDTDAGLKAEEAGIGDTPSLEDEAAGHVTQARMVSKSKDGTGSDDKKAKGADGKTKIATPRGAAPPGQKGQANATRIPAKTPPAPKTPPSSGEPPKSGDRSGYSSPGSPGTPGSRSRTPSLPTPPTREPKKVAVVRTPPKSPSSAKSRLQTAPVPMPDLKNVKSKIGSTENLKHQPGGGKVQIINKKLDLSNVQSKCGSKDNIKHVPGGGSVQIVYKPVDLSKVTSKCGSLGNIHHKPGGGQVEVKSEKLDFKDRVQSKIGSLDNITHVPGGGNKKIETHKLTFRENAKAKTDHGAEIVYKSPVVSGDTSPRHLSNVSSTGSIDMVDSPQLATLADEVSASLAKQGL
Procedure: as §1, §2, §3, §4, §5

[4] = cited from earlier work

Chain of Aβ(1-42) amyloid fibrils (P05067 672-713 limits assumed): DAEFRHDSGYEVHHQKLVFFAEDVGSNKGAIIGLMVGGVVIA

| Compound | pIC50 [1] | Selectivity for tau relative to Aβ [2] | pIC50 [3] | binding in the recombinant 4R tau fibrils assay (in words) ([3]; recombinant 4R tau fibrils, [^3H]-THK5117 competition) | radiochemical purity after exposure to fluorescent light ([4]; 1 min after exposure to fluorescent light) | radiochemical purity after exposure to fluorescent light ([4]; from 10 to 60 min after exposure to fluorescent light) |
| --- | --- | --- | --- | --- | --- | --- |
| COc1ccc2nc(-c3ccc(N4CCCC(O)C4)nc3)sc2c1 (stereo not shown) [Compound 1, 1-[5-(6-Methoxy-1,3-benzothiazol-2-yl)pyridin-2-yl]piperidin-3-ol] | 8.10 | 2 | 8.40 |  |  |  |
| COc1ccc2nc(-c3ccc(N4CC[C@@H](CO)[C@H](O)C4)nc3)sc2c1 [Compound 11, (3S,4S)-4-(Hydroxymethyl)-1-[5-(6-methoxy-1,3-benzothiazol-2-yl)pyridin-2-yl]piperidin-3-ol] |  |  | 7.96 |  |  |  |
| OCC1CN(c2ccc(-c3cc4cc(O)ccc4[nH]3)c(F)n2)C1 [Compound 4] | 7.33 | 1.2 | 7.42 |  |  |  |
| COC(=O)C1CN(c2ccc(-c3cc4cc(O)ccc4[nH]3)c(F)n2)C1 [Compound 33, Methyl 1-[6-Fluoro-5-(5-hydroxy-1H-indol-2-yl)pyridin-2-yl]azetidine-3-carboxylate] |  |  | 8.22 |  |  |  |
| COc1ccc2nc(-c3ccc(N4CC[C@@H](O)[C@H](O)C4)nc3)sc2c1 [Compound 8, (3R,4R)-1-[5-(6-Methoxy-1,3-benzothiazol-2-yl)pyridin-2-yl]piperidine-3,4-diol] |  |  | 7.80 |  |  |  |
| COc1ccc2nc(-c3ccc(N4C[C@H](O)C[C@H](O)C4)nc3)sc2c1 [Compound 12, (3R,5S)-1-[5-(6-Methoxy-1,3-benzothiazol-2-yl)pyridin-2-yl]piperidine-3,5-diol] |  |  | 7.40 |  |  |  |
| Nc1c(F)ccc2cnc(-n3ccc4ccncc43)cc12 [MK-6420, reference compound] |  |  | < 6.00 | inactive |  |  |
| Oc1ccc2[nH]c(-c3ccc(N4CCC[C@H](O)C4)nc3F)cc2c1 [Compound 7, 2-{2-Fluoro-6-[(3S)-3-hydroxypiperidin-1-yl]pyridin-3-yl}-1H-indol-5-ol] | 7.10 | 8.9 | 8.05 |  |  |  |
| OCC1CCN(c2ccc(-c3cc4ccc(O)cc4[nH]3)c(F)n2)CC1 [Compound 22, 2-{2-Fluoro-6-[4-(hydroxymethyl)piperidin-1-yl]pyridin-3-yl}-1H-indol-6-ol] | 8.52 | 1 | 8.52 |  |  |  |
| O[C@@H]1CCCN(c2ncc(-c3cc4cc(OCCF)ccc4[nH]3)cn2)C1 [Compound 31, (3R)-1-{5-[5-(2-Fluoroethoxy)-1H-indol-2-yl]pyrimidin-2-yl}piperidin-3-ol] | 7.92 | 1.2 | 8.00 |  |  |  |
| Oc1ccc2[nH]c(-c3cnc(N4CCC[C@@H](O)C4)nc3)cc2c1 [Compound 30, 2-{2-[(3R)-3-Hydroxypiperidin-1-yl]pyrimidin-5-yl}-1H-indol-5-ol] | 7.05 | 0.6 | 6.82 |  |  |  |
| OC[C@@H]1CCN(c2ccc(-c3cc4cc(O)ccc4[nH]3)c(F)n2)C[C@@H]1O [Compound 26] |  |  | 7.32 |  |  |  |
| OCCC1CN(c2ccc(-c3cc4cc(O)ccc4[nH]3)c(F)n2)C1 [Compound 5] | 7.96 | 1.6 | 8.15 |  |  |  |
| O[C@@H]1CCCN(c2ccc(-c3cc4cc(OCCOCCOCCF)ccc4[nH]3)cn2)C1 [Compound 29, (3R)-1-[5-(5-{2-[2-(2-Fluoroethoxy)ethoxy]ethoxy}-1H-indol-2-yl)pyridin-2-yl]piperidin-3-ol] | 7.10 | 5.7 | 7.85 |  |  |  |
| Oc1ccc2[nH]c(-c3ccc(N4CCC[C@@H](O)C4)nc3)cc2c1 [Compound 27, 2-{6-[(3R)-3-Hydroxypiperidin-1-yl]pyridin-3-yl}-1H-indol-5-ol] | 7.49 | 1.3 | 7.60 |  |  |  |
| COc1ccc2nc(-c3ccc(N4CC[C@@H](O)C4)nc3)sc2c1 [Compound 2, (3R)-1-[5-(6-Methoxy-1,3-benzothiazol-2-yl)pyridin-2-yl]pyrrolidin-3-ol] | 7.66 | 1.2 | 7.74 |  |  |  |
| OC[C@@H]1CCN(c2ccc(-c3cc4cc(O)ccc4[nH]3)c(F)n2)C[C@H]1O [Compound 18, 2-{2-Fluoro-6-[(3S,4S)-3-hydroxy-4-(hydroxymethyl)piperidin-1-yl]pyridin-3-yl}-1H-indol-5-ol] |  |  | 7.54 |  |  |  |
| COc1ccc2nc(-c3ccc(N4CC[C@@H](CO)[C@@H](O)C4)nc3)sc2c1 [Compound 24] |  |  | 8.05 |  |  |  |
| COc1ccc2nc(-c3ccc(N4CC[C@H](O)C4)nc3)sc2c1 [Compound 3, (3S)-1-[5-(6-Methoxy-1,3-benzothiazol-2-yl)pyridin-2-yl]pyrrolidin-3-ol] | 7.96 | 1 | 7.96 |  |  |  |
| COc1ccc2nc(-c3ccc(N4CC[C@@H](O)[C@@H](O)C4)nc3)sc2c1 [Compound 23, (3S,4R)-1-[5-(6-Methoxy-1,3-benzothiazol-2-yl)pyridin-2-yl]piperidine-3,4-diol] |  |  | 8.22 |  |  |  |
| CNc1ccc(/C=C/C=C/c2nc3ccc(O)cc3s2)cn1 [PBB3, reference compound] | 7.55 | 4 | 8.15 |  |  |  |
| CNc1ccc(/C=C/C=C/c2nc3ccc(O)cc3s2)cn1 [^11C-PBB3] |  |  |  |  | 77% | approximately 50% |
| O[C@@H]1CCCN(c2ncc(-c3cc4cc(OCCOCCOCCF)ccc4[nH]3)cn2)C1 [Compound 32, (3R)-1-[5-(5-{2-[2-(2-Fluoroethoxy)ethoxy]ethoxy}-1H-indol-2-yl)pyrimidin-2-yl]piperidin-3-ol] | 7.60 | 0.3 | 7.05 |  |  |  |
| OCC1(O)CCN(c2ccc(-c3cc4cc(O)ccc4[nH]3)c(F)n2)CC1 [Compound 21, 2-{2-Fluoro-6-[4-hydroxy-4-(hydroxymethyl)piperidin-1-yl]pyridin-3-yl}-1H-indol-5-ol] | 8.05 | 0.2 | 7.40 |  |  |  |
| COc1ccc2nc(-c3ccc(N4CCC(O)(CO)CC4)nc3)sc2c1 [Compound 14, 4-(Hydroxymethyl)-1-[5-(6-methoxy-1,3-benzothiazol-2-yl)pyridin-2-yl]piperidin-4-ol] | 7.19 | 7.2 | 8.05 |  |  |  |
| COc1ccc2nc(-c3ccc(N4C[C@H](O)C[C@@H](O)C4)nc3)sc2c1 [Compound 25, (3R,5R)-1-[5-(6-Methoxy-1,3-benzothiazol-2-yl)pyridin-2-yl]piperidine-3,5-diol] |  |  | 7.21 |  |  |  |
| Oc1ccc2[nH]c(-c3ccc(N4CCC[C@@H](O)C4)nc3F)cc2c1 [Compound 6, 2-{2-Fluoro-6-[(3R)-3-hydroxypiperidin-1-yl]pyridin-3-yl}-1H-indol-5-ol] | 7.43 | 37 | 9.00 |  |  |  |
| O[C@@H]1CCCN(c2ccc(-c3cc4cc(OCCF)ccc4[nH]3)cn2)C1 [Compound 28, (3R)-1-{5-[5-(2-Fluoroethoxy)-1H-indol-2-yl]pyridin-2-yl}piperidin-3-ol] | 8.10 | 2 | 8.40 |  |  |  |

From patent publication US20240165276A1, “SELECTIVE LIGANDS FOR TAU AGGREGATES” (KARIN & STEN MORTSTEDT CBD SOLUTIONS AB, priority 2019, published 2024)
